# Assay results: US20230241159A1, “Peptide Having Mesenchymal Stem Cell Mobilizing Activity” (StemRIM Inc., priority 2020, published 2023)
# Columns and labels:
# [1] = test system: inflammatory bowel disease (IBD) model mice; assay: Dextran sulfate sodium (DSS)-induced inflammatory bowel disease (IBD) model mice; assay type: in vivo, BALB/c mice
# Procedure: Dextran sodium sulfate (DSS) (molecular weight 36,000 to 50,000, manufactured by MP Biomedicals, Product No. 160110) was dissolved in purified water to prepare a 2.5% (w/v) DSS aqueous solution. In addition, the peptide 1r10 (TFA salt) consisting of the amino acid sequence of SEQ ID NO: 1 was chemically synthesized by the solid phase method and used as the test substance.
# BALB/c mice (9 weeks old, male) were allowed to drink the 2.5% DSS aqueous solution freely for 7 days to induce colitis. After that, the drinking was changed from DSS to tap water, and the large intestine was collected 3 days later (10 days after the start of drinking the DSS aqueous solution).
# The IBD model mice prepared as described above were divided into the peptide 1r10 administration group (n=8) and the control group (n=8). Peptide administration was carried out by injecting into the tail vein, the peptide 1r10 solution adjusted to a concentration of 0.5 mg/mL using physiological saline as a solvent at an amount of 10 mL/kg on Days 1, 4, 7, 8 and 9 after the start of drinking the DSS aqueous solution (peptide dose of 5 mg/kg). The control group was injected with physiological saline solution at a dose of 10 mL/kg into the tail vein on Days 1, 4, 7, 8 and 9 after the start of drinking the DSS aqueous solution.
# For 10 days from the start of drinking the DSS aqueous solution, the mice were weighed and observed for the symptoms (stool condition and bleeding) every day except Saturdays, Sundays, and holidays, and the degree of symptoms was evaluated by calculating the DAI (disease activity index) score. The DAI score was calculated by scoring the weight loss rate, stool condition, and stool bleeding as shown in the table below, and summing the scores of these three items. The scoring criteria were partly based on the method of Li et al. (PLoS One. 2015 Dec. 7; 10 (12): e0144101).
# In addition, the length of the large intestine (from the colon to the rectum) collected 10 days after the start of drinking DSS was measured using a digital caliper.
# [2] = test system: atopic dermatitis model mice; assay: MC903-induced atopic dermatitis model mice; assay type: in vivo, C57BL/6 mice
# From the text: MC903 (generic name: Calcipotriol) was used to induce atopic dermatitis (hereinafter, also referred to as “AD”) in mice. In addition, the peptide 1r10 (TFA salt) described in Reference Example 1 was used as the test substance.
# C57BL/6 mice (C57BL/6 JJcl, 7-8 weeks old, male, microbial grade SPF) were obtained from Japan Claire Co., Ltd., acclimated in the animal breeding room for 5 days or more, and then subjected to the following experiments. An ethanol-adjusted MC903 solution was applied to the skin of the auricle of the mice at a dose of 2.25 nmol MC903/ear/once/day five times a week for 2 weeks (ten times in total) to induce atopic dermatitis (AD). This MC903-induced AD model is a model in which AD-like pathology can be reproduced in a short period of time (1-2 weeks) by artificially inducing the secretion of TSLP from epithelial cells, which is actually seen in AD patients, thereby eliciting a series of type 2 immune response cascades (Li M et al., Proc Natl Acad Sci USA. 2006; 103:11736-41.).
# They were then divided into the control group and the peptide administration group (n=7 in each group), while the groups were equalized based on the auricle thickness in consideration of the difference in the severity of inflammation between individuals. For peptide administration, the solution of peptide 1r10 adjusted to 0.3 mg/mL with physiological saline was injected into the tail vein at a volume of 5 mL/kg ([…]) twice in total, once on the grouping day (Day 15) and once during the following 4 days (Day 16 to Day 19). For the control group a solution of bovine serum albumin (BSA) adjusted to 0.3 mg/mL with physiological saline was injected into the tail vein at a volume of 5 mL/kg (BSA dose of 1.5 mg/kg) twice in total, once on the grouping day (Day 15) and once during the following 4 days (Day 16 to Day 19).
# During the peptide administration period (Day 15 to Day 19), ear swellings were measured daily to determine edema. Scaling, which is the main symptom of AD, was determined by photography (three times a week) using a digital camera (E-Ml II; Olympus) from a fixed base at a height of 13-14 cm from the auricle.
# On the 4th day (Day 19) after the start of peptide administration, mice were placed under the influence of isoflurane anesthesia and euthanized with cervical spine dislocation. The skin at auricular inflammation site and its surroundings was quickly excised and collected while on ice to prevent protein denaturation of the sample. After removing excess hair and skin with tweezers, the collected auricular skin was immersed in 10% formalin and fixed at 4° C. overnight while shaking on ice using a shaker. After fixation, the skin was thoroughly washed with phosphate buffered saline (PBS) and trimmed, and then a paraffin block was made using an automatic embedding device (Excelsior ES; Thermo Scientific) with attention to the tissue polarity in the dorsoventral axis/left-right axis specific to the skin). Then, it was sliced (5 μm thick) with a rotary microtome (HM 325; Thermo Scientific), fixed on a slide glass, and subjected to various staining. As pathological analysis, skin thickness and infiltration of immune cells were evaluated by histochemical staining and fluorescent immunostaining, respectively.
# To quantitatively evaluate the healing condition of the site of inflammation, hematoxylin-eosin (HE) staining of the paraffin thin sections (5 μm thick) of skin tissue generated as described above was performed to measure the dermal thickness. Specifically, three sections were prepared for each individual, and each section was photographed with a microscope (Keyence BZ-X710) at one site each of the center of inflammation, head side, and tail side (that is, a total of 9 sites were photographed per individual). […]
# [3] = test system: cerebral infarction model rat; assay: Cerebral infarction model rat (right MCA occlusion), cerebral infarction volume ratio; assay type: in vivo, Crl:CD (SD) rats; settings: 2 mg/kg tail vein at 105 minutes and 24 hours after right MCA occlusion; 48 hours after occlusion; control 34.1±1.1%; p<0.01
# From the text: Crl:CD (SD) rats (7 weeks old, male) were obtained from Charles River Laboratories, Japan, and after 6 days of acclimation, they were divided into the control group (n=8) and the peptide-administered group (n=8). On the following day of grouping, the rats were fixed in the supine position under 2% isoflurane inhalation anesthesia (anesthesia background: laughing gas:oxygen=7:3). To regulate body temperature during surgery, a thermometer probe connected to a digital thermometer was inserted into the rectum, and changes in the rectal temperature before and after surgery were monitored. […]
# Forty-eight hours after the right MCA occlusion, the animals were decapitated under anesthesia with sodium pentobarbital (50 mg/kg, intraperitoneal administration), and the entire brain was excised to prepare brain sections with a thickness of 2 mm. […] The resulting photographs were subjected to image analysis to obtain actual measurements of the cerebral infarction area and cross-sectional area of the brain, and the cerebral infarct volume and the total brain volume from 4 mm anterior to bregma to 6 mm posterior to bregma were calculated using the calculation formula below. In addition, the cerebral infarction volume ratio was calculated from the cerebral infarction volume and the total volume of the brain (cerebral infarction volume ratio (%)=cerebral infarction volume/total brain volume x 1001. […]
# mesenchymal stem cells = assay: Solid-phase culture of peripheral blood after administration of HMGB1 peptide 1-44 (earlier experiments of the inventors); assay type: in vivo
# From the text: In addition, the colonies obtained as a result of culturing, on a solid phase, peripheral blood after administration of a peptide consisting of amino acid residues 1-44 of the human HMGB1 protein (hereinafter, HMGB1 peptide 1-44), which has an activity of mobilizing mesenchymal stem cells into peripheral blood, have been confirmed to have adherability to solid phase and self-renewal ability, and to be PDGFRα positive. They have also been confirmed to have a gene expression profile characteristic to mesenchymal stem cells, based on the results of clustering the transcriptome analysis data and performing gene ontology analysis.
# [4] = 5 mg/kg tail vein, 8 to 10 days after the start of drinking DSS, versus saline control
Substance,"body weight 10 days after the start of drinking the DSS aqueous solution ([1]; 5 mg/kg tail vein on Days 1, 4, 7, 8 and 9, Day 10)","changes in mouse body weight during the test period ([1]; 5 mg/kg tail vein on Days 1, 4, 7, 8 and 9 after start of drinking DSS, versus saline control)","DAI (disease activity index) score [1, 4]","stool score (sum of stool condition score and bleeding score) [1, 4]","colon length (length of the large intestine) ([1]; 5 mg/kg tail vein, ten days after the start of drinking DSS, versus saline control)","dermis thickness ([2]; 1.5 mg/kg tail vein twice, 4th day after start of administration (Day 19), HE staining, versus control)","scaling in the auricle ([2]; 1.5 mg/kg tail vein twice, 4 days after start of peptide administration, versus BSA control)","number of CD45-positive cells (infiltration of immune cells) in auricular skin sections ([2]; 1.5 mg/kg tail vein twice, Day 19, high power field 400×, versus control)","auricular thickness (edema) ([2]; 1.5 mg/kg tail vein twice, peptide administration period Day 15 to Day 19, versus BSA control)","changes in mouse body weight during the period of the study ([2]; Day 15 to Day 19, between peptide and control groups, p>0.05, repeated one-way ANOVA)","dermis thickness ([2]; dose of 0.5 mg/kg, versus control (data not shown))",cerebral infarction volume ratio (mean±standard error) [3],"number of colonies obtained by solid-phase culture of peripheral blood, versus physiological saline (mesenchymal stem cells)"
1r10: artificial sequence peptide consisting of the amino acid sequence of SEQ ID NO: 1 (30 amino acids) (IMWLCQYFFQCHKCAVKKKTWKEKKDRRHP) [Peptide 1r10],showed a tendency to recover body weight,the degree of decrease was slower in the peptide-administered group than in the control group,lower in the peptide-administered group than in the control group,lower in the peptide-administered group than in the control group,longer than that of the control group,statistically significant decrease in dermis thickness,reduction of scaling in the auricle was observed,statistically significant decrease in the number of CD45-positive cells,statistically significant reduction in auricular thickness,not significantly different between the groups,statistically significant decrease in dermis thickness,27.2±1.2%,
"HMGB1 peptide 1-44: peptide consisting of amino acid residues 1-44 of the human HMGB1 protein (MGKGDPKKPRGKMSSYAFFVQTCREEHKKKHPDASVNFSEFSKK; UniProt P09429 1-44, looked up, fragment)",,,,,,,,,,,,,larger in the peripheral blood after administration of HMGB1 peptide 1-44 than in the peripheral blood after administration of physiological saline
